{
  "source": "patent US12686875B2",
  "about": "“Small molecules for increasing precise genome editing efficiency” (Max-Planck-Gesellschaft zur Förderung der Wissenschaften …, priority 2018, dated 2026)",
  "key": {"[1]": {"test_system": "K562 cells expressing wild-type DNA-PKcs", "assay": "Genome editing of FRMD7 with Cas9 in K562 cells, amplicon sequencing (HDR / precise genome editing efficiency)", "assay_type": "cell-based, human", "conditions": "for HDR-increasing effect / precise genome editing efficiency, comparison of DNA-PKcs inhibitors: K562 cells, Cas9 induced DSB, 2 μM and 20 μM", "protocol": "Cells were grown at 37° C. in a humidified incubator gassed with 5% CO2.\nThe recombinant A.s. Cpf1 and S.p. Cas9 protein and electroporation enhancer was ordered from IDT (Coralville, USA) and nucleofection was done using the manufacturer's protocol, except for the following alterations. […] Cells were counted using the Countess Automated Cell Counter (Invitrogen).\nIncubation at 65° C. for 10 min, 68° C. for 5 min and finally 98° C. for 5 min was performed to yield ssDNA as a PCR template. […] PCR was done in a T100 Thermal Cycler (Bio-Rad) using the KAPA2G Robust PCR Kit (Peqlab, 07-KK5532-03) with supplied buffer B and 3 μl of cell extract in a total volume of 25 μl. The thermal cycling profile of the PCR was: 95° C."}, "409B2 hiPSCs": {"test_system": "409B2 hiPSCs", "assay": "Genome editing of FRMD7 with Cas9 protein in 409B2 hiPSCs", "assay_type": "cell-based, human", "conditions": "2 μM, Cas9 induced DSB", "excerpt": "FIG. 5: Comparison of the effect of DNA-PK inhibitors on genome editing efficiency. Editing efficiencies of FRMD7 with Cas9 protein and treatment with different concentrations of M3814, NU7026, and NU7441 are shown for K562 cells (A) and 409B2 hiPSCs (B). HDR, mix (HDR with indels), NHEJ, and MMEJ are indicated in green, light green, light blue and light purple, respectively. Error bars show the SEM of three replicates. A skull indicates excessive cell death of up to around 80% determined by phase contrast light microscopy.\n(§1) We recently created an iCRISPR-Cas9n line from human induced pluripotent stem cells (hiPSCs) (409-B2, Riken BioResource Center) and human embryonic stem cells (hESCs) (H9) as described by Gonzalez et al. Stem cells were grown on Matrigel Matrix (Corning, 35248) in mTeSR1 medium (StemCell Technologies, 05851) with supplement (StemCell Technologies, 05852) that was replaced daily. K562 cells (ECACC, 89121407) were grown with IMDM (ThermoFisher, 12440053) supplemented with 10% FBS. Cells were grown at 37° C. in a humidified incubator gassed with 5% CO2. Media was replaced every second day for non-pluripotent cell lines. Cell cultures were maintained 4-6 days until ~80% confluency, and subcultured at a 1:6 to 1:10 dilution. Adherent cells were dissociated using EDTA (VWR, 437012C). The media was supplemented with 10 μM Rho-associated protein kinase (ROCK) inhibitor Y-27632 (Calbiochem, 688000) after cell splitting for one day in order to increase cell survival.\nThe recombinant A.s. Cpf1 and S.p. Cas9 protein and electroporation enhancer was ordered from IDT (Coralville, USA) and nucleofection was done using the manufacturer's protocol, except for the following alterations. […] Cells were counted using the Countess Automated Cell Counter (Invitrogen). […]"}, "[2]": {"test_system": "wild-type cell line, NFASC target", "assay": "Genome editing of NFASC target with transient NHEJ/MMEJ/SSA inhibition in a wild-type cell line", "assay_type": "cell-based", "conditions": "combination of 2 μM M3814, 320 pmol PoIQ siRNA aa765, PoIQ coding strand nicking, 5 μM 6-OH-dopa, 50 μM AICAR", "excerpt": "FIG. 7: Inhibition of RAD52 dependent single strand annealing (SSA) together with MMEJ inhibition is needed to further increase HDR for rare targets with long stretches of homology. The NFASC target has an 11 bp stretch of homology. The first three bars show editing efficiencies in a wild-type cell line, a DNA-PKcs KR cell line leading to NHEJ inhibition, and a DNA-PKcs KR+PoIQ Knockout cell line leading to NHEJ and MMEJ inhibition. […] HDR, mix (HDR with indels), NHEJ, and estimated MMEJ/SSA (at least 2 bp microhomology) are indicated in green, light green, light blue, and light purple, respectively. Error bars show the SEM of at least two replicates and one experiment for the last bar.\nIn some cases the target for genome editing has long homology stretches around the cleavage site. […] We speculated that indel formation was carried out by the RAD52 dependent single strand annealing pathway (SSA) which uses long stretched of homology."}, "rabbit embryos": {"test_system": "rabbit embryos", "conditions": "cited from earlier work"}, "mouse embryos": {"test_system": "mouse embryos", "conditions": "cited from earlier work"}, "human stem cells": {"test_system": "human stem cells", "conditions": "cited from earlier work"}, "human LIG4": {"biological_target": "human LIG4 (Homo sapiens, UniProt P49917)", "sequence (P49917 whole entry)": "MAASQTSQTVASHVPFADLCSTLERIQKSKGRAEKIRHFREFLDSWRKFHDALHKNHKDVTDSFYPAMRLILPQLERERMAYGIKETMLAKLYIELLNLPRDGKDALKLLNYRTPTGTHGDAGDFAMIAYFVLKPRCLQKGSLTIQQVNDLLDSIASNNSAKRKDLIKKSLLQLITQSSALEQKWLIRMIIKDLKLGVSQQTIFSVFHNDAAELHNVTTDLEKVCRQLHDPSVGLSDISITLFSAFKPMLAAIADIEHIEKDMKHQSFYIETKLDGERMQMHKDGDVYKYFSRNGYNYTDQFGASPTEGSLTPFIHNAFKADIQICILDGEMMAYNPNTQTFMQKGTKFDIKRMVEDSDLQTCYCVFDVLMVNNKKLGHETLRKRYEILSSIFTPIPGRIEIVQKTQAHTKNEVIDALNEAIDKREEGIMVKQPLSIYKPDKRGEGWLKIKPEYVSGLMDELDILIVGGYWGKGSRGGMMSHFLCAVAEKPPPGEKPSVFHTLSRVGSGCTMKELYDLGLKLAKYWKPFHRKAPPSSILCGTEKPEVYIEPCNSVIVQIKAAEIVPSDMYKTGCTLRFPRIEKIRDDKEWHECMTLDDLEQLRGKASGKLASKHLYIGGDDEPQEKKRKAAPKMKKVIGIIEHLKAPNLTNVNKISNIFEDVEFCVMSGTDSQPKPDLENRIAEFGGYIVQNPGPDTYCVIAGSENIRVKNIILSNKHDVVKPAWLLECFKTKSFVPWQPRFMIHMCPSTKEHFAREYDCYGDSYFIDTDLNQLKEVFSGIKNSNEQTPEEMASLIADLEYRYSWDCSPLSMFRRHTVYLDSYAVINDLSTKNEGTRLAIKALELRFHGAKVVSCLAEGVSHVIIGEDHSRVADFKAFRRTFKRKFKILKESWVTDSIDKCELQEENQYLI", "sequence (Q13426 whole entry partner)": "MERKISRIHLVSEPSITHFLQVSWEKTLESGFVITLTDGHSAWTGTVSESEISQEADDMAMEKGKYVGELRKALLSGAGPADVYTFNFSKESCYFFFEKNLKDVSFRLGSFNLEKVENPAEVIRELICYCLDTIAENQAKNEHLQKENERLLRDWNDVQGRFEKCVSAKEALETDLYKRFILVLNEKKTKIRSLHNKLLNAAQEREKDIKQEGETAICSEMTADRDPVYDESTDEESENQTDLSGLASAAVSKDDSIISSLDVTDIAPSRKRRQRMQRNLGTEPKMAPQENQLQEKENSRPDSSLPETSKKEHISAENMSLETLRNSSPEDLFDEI", "conditions": "Greco et al. 2016; cited from earlier work"}, "[3]": {"test_system": "precise genome editing (PGE)", "conditions": "SCR7 and L755507 added together with RS-1; cited from earlier work"}, "HEK293A cells": {"test_system": "HEK293A cells", "conditions": "cited from earlier work"}, "polymerase theta (PoIQ)": {"test_system": "polymerase theta (PoIQ)", "assay": "Genome editing efficiency with PoIQ (MMEJ) inhibition in cells with DNA-PKcs KR mutation", "assay_type": "cell-based, human", "conditions": "cells with DNA-PKcs KR mutation (NHEJ inhibited)", "protocol": "FIG. 6: Inhibition of polymerase theta (PoIQ) dependent microhomology mediated end-joining (MMEJ) can further increase HDR if the target of interest is prone to MMEJ repair. All cells have inhibited NHEJ due to the DNA-PKcs KR mutation, which can be transiently achieved by M3814 in wildtype cells as well. Shown are genome editing efficiencies. Cells were treated with different amounts of siRNA against PoIQ (Dharmacon ON-TARGET plus Human POLQ (10721) siRNA-SMART pool), single nicking of the first exon of PolQ, a combination of the SMART pool and coding strand nicking, and siRNA against PoIQ binding the mRNA at the sequence corresponding to amino acid 765 of PolQ. A cell line with both DNA-PKcs KR and PoIQ knockout mutation is shown for comparison. HDR, mix (HDR with indels), NHEJ, and estimated MMEJ (at least 2 bp microhomology) are indicated in green, light green, light blue, and light purple, respectively. Error bars show the SEM of at least two replicates.\nFor some targets HDR is increased but a substantial portion of genome editing events however still consists of indels. These are due to the microhomology mediated end-joining (MMEJ) pathway (also referred to as alternative NHEJ) which can compete with NHEJ and serves as a back-up pathway which relies on short stretches of microhomology at the cleavage site. […]"}, "H9 hESCs": {"test_system": "H9 hESCs", "assay": "Genome editing of LYPLA1 and SCAP by Cas9n double nicking in H9 hESCs-iCRISPR", "assay_type": "cell-based, human", "conditions": "M3814 for three days", "excerpt": "Genome editing efficiencies of the LYPLA1 and SCAP gene in H9 hESCs-iCRISPR Cas9 nickase (Cas9n) double nicking and treatment with M3814 for three days and with DNA-PKcs K3753R cells are shown. HDR, mix (HDR with indels), NHEJ (non-homologous end joining), and MMEJ (microhomology-mediated end joining with at least two bp of microhomology) are indicated in green, light green, light blue, and light purple, respectively.\nas §1, with “The media was supplemented with 10 μM Rho-associated protein kinase (ROCK) inhibitor Y-27632 (Calbiochem, 688000) after cell splitting for one day in order to increase cell survival.” left out\nThe recombinant A.s. […] Cells were counted using the Countess Automated Cell Counter (Invitrogen). […]"}, "K562 cells": {"test_system": "K562 cells", "assay": "Resazurin assay for cell survival three days after editing", "assay_type": "cell-based, human", "excerpt": "FIG. 2: Cell survival of human immortalized myelogenous leukemia cells K562 cells after treatment with the small molecule M3814. Results of a resazurin assay for cell survival three days after editing are shown. Resazurin is converted into fluorescent resorfin by cellular dehydrogenases and resulting fluorescence (Excitation: 530-570 nm, Emission: 590-620 nm) is a marker for the amount of living cells. Resorfin fluorescence (610±30 nm) of cells without any treatment is set to 100% cell survival. Error bars show the SEM of three technical replicates for three technical replicates.\nCells were either seeded with or without editing reagents. The media was supplemented with or without M3814 and each condition was carried out in duplicate. After 72 h media was aspirated and 100 μl fresh media together with 10 μl resazurin solution (Cell Signaling, 11884) was added. Resazurin is converted into fluorescent resorfin by cellular dehydrogenases and resulting fluorescence (Excitation: 530-570 nm, Emission: 590-620 nm) is considered as a linear marker for cell viability (O'Brien et al. 2000). Cells were incubated with resazurin at 37° C. The redox reaction was measured every hour by fluorescence readings using a Typhoon 9410 imager (Amersham Biosciences). […] Duplicate wells with media and resazurin, but without cells, were used a blank."}},
  "data": [
    {"compound": "O=c1cc(N2CCOCC2)oc2c1ccc1ccccc12", "note": "[NU7026]", "values": [
      {"measurement": "HDR-increasing effect / precise genome editing efficiency, comparison of DNA-PKcs inhibitors", "setting": "[1]", "result": "significantly less precise genome editing efficiency"},
      {"measurement": "HDR efficiencies", "setting": "409B2 hiPSCs", "result": "much lower efficiencies"}
    ]},
    {"compound": "NC(=O)c1ncn([C@@H]2O[C@H](COP(=O)(O)O)[C@@H](O)[C@H]2O)c1N", "note": "[AICAR, AICA ribonucleotide 5′-monophosphate]", "values": [
      {"measurement": "HDR, combined NHEJ/MMEJ/SSA inhibition", "setting": "[2]", "result": "drastic HDR increase"}
    ]},
    {"compound": "O=c1[nH]c(=S)[nH]c(N=Cc2ccccc2)c1N=Cc1ccccc1", "note": "[SCR7]", "values": [
      {"measurement": "effect on PGE", "setting": "rabbit embryos", "result": "no significant effect"},
      {"measurement": "efficiency of PGE", "setting": "mouse embryos; from 5% without SCR7 (Maruyama et al. 2015)", "result": 22.7, "unit": "%"},
      {"measurement": "effect on PGE", "setting": "mouse embryos; other researchers", "result": "no significant effect"},
      {"measurement": "effect on PGE", "setting": "human stem cells", "result": "no significant effect"},
      {"measurement": "inhibitory properties on human LIG4", "setting": "human LIG4", "result": "neither selective nor potent inhibitors"},
      {"measurement": "effect on PGE when added together with RS-1, compared to RS-1 alone", "setting": "[3]", "result": "no additive effect"},
      {"measurement": "effect on PGE", "setting": "HEK293A cells", "result": "marginal but significant increase"}
    ]},
    {"compound": "siRNA aa765: siRNA binding PoIQ mRNA before the sequence corresponding to the first RAD51 binding domain (SEQ ID NO: 63) (TTGGAAAATACTGTAATCATCCCTGCA; listed as DNA, chemistry not given here)", "values": [
      {"measurement": "HDR and indels with MMEJ signature, siRNA alone", "setting": "polymerase theta (PoIQ)", "result": "high HDR"}
    ]},
    {"compound": "COc1ccc([C@@H](O)c2cc(-c3ncnc4cc(N5CCOCC5)ccc34)c(F)cc2Cl)nn1", "note": "[M3814, Nedisertib]", "values": [
      {"measurement": "HDR efficiencies compared with DNA-PKcs K3753R mutation", "setting": "H9 hESCs", "result": "comparable to what is achievable by total inactivation of the DNA-PKcs catalytic active site"},
      {"measurement": "precise genome editing / HDR efficiency", "setting": "[1]; K562 cells expressing wild-type DNA-PKcs, FRMD7, Cas9, transient M3814 treatment (three days), 18% without M3814", "result": 81, "unit": "%"},
      {"measurement": "HDR-increasing effect / precise genome editing efficiency, comparison of DNA-PKcs inhibitors", "setting": "[1]", "result": "stronger HDR-increasing effect than treatment with NU7026 and NU7441"},
      {"measurement": "HDR, combined NHEJ/MMEJ/SSA inhibition", "setting": "[2]", "result": "drastic HDR increase"},
      {"measurement": "toxicity (cell survival, resazurin assay)", "setting": "K562 cells", "result": "moderate toxicity"},
      {"measurement": "HDR efficiencies", "setting": "409B2 hiPSCs", "result": "strongly increased HDR efficiencies"}
    ]},
    {"compound": "O=c1cc(N2CCOCC2)oc2c(-c3cccc4c3sc3ccccc34)cccc12", "note": "[NU7441]", "values": [
      {"measurement": "HDR-increasing effect / precise genome editing efficiency, comparison of DNA-PKcs inhibitors", "setting": "[1]", "result": "significantly less precise genome editing efficiency"},
      {"measurement": "HDR efficiencies", "setting": "409B2 hiPSCs", "result": "much lower efficiencies"}
    ]},
    {"compound": "NC(Cc1cc(O)c(O)cc1O)C(=O)O", "note": "(centres unmarked) [6-hydroxy-depa, 6-hydroxy-dopa]", "values": [
      {"measurement": "HDR, combined NHEJ/MMEJ/SSA inhibition", "setting": "[2]", "result": "drastic HDR increase"}
    ]}
  ]
}
